Results taken from patent US9513294B2, “Megastokes amino-triazolyl-BODIPY compounds and applications to live neuron staining and human serum albumin FA1 drug site probing” (National University of Singapore, priority 2012, dated 2016).

Experiments:
[1] = Absorbance and fluorescence emission spectra (SpectraMax M2); type: physicochemical
Method in brief: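 Absorbance and emission maxima measured on a SpectraMax M2 spectrophotometer, which also gave quantum yield data; analysis in GraphPrism.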

[2] = Quantum yield measurements versus Acridine Yellow in EtOH; type: physicochemical; settings: excitation 460 nm
Method in brief: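 Fluorescence quantum yield is relative to Acridine Yellow in EtOH (Φ 0.47), with excitation at 460 nm. Integrated emission at 510–700 nm was corrected for absorbance at the excitation wavelength and for solvent refractive index.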

SMILES | λmax Absorp. ([1]; BDCCA library, Table 4) [nm] | λmax Emission ([1]; BDCCA library, Table 4) [nm] | φ (quantum yield) ([2]; BDCCA library, Table 4) [%] | λmax Absorp. ([1]; MK library, Table 5) [nm] | λmax Emission ([1]; MK library, Table 5) [nm] | φ (quantum yield) ([2]; MK library, Table 5) [%]
O=C(CCl)Nc1ccc(C2=C3C=CC(N4CCCCC4)=[N+]3[B-](F)(F)n3c2ccc3-n2cc(CCc3ccccc3)nn2)cc1 [BDCCA-19] | 466 | 578 | 1.0 | – | – | –
COc1ccc2cc(-c3cn(-c4ccc5n4[B-](F)(F)[N+]4=C(N6CCCCC6)C=CC4=C5c4ccc(NC(=O)CCl)cc4)nn3)ccc2c1 [BDCCA-22] | 464 | 586 | 1.1 | – | – | –
O=C(CCl)Nc1ccc(C2=C3C=CC(N4CCCCC4)=[N+]3[B-](F)(F)n3c2ccc3-n2cc(-c3ccc(-c4ccccc4)cc3)nn2)cc1 [BDCCA-23] | 464 | 575 | 1.2 | – | – | –
O=C(CCl)Nc1ccc(C2=C3C=CC(N4CCCCC4)=[N+]3[B-](F)(F)n3c2ccc3-n2cc(-c3ccc(F)cc3F)nn2)cc1 [BDCCA-26] | 465 | 568 | 1.3 | – | – | –
COc1cccc(-c2cn(-c3ccc4n3[B-](F)(F)[N+]3=C(N5CCCCC5)C=CC3=C4c3ccc(NC(=O)CCl)cc3)nn2)c1 [BDCCA-27] | 463 | 552 | 2.3 | – | – | –
CCCCCc1ccc(-c2cn(-c3ccc4n3[B-](F)(F)[N+]3=C(N5CCCCC5)C=CC3=C4c3ccc(NC(=O)CCl)cc3)nn2)cc1 [BDCCA-29] | 464 | 548 | 1.7 | – | – | –
O=C(CCl)Nc1ccc(C2=C3C=CC(N4CCCCC4)=[N+]3[B-](F)(F)n3c2ccc3-n2cc(-c3cc(C(F)(F)F)cc(C(F)(F)F)c3)nn2)cc1 [BDCCA-30] | 458 | 556 | 2.6 | – | – | –
O=C(CCl)Nc1ccc(C2=C3C=CC(N4CCCCC4)=[N+]3[B-](F)(F)n3c2ccc3-n2cc(-c3cccc(F)c3)nn2)cc1 [BDCCA-31] | 462 | 568 | 1.0 | – | – | –
CC(C)CCc1cn(-c2ccc3n2[B-](F)(F)[N+]2=C(N4CCCCC4)C=CC2=C3c2ccc(NC(=O)CCl)cc2)nn1 [BDCCA-36] | 467 | 584 | 0.5 | – | – | –
O=C(CCl)Nc1ccc(C2=C3C=CC(N4CCCCC4)=[N+]3[B-](F)(F)n3c2ccc3-n2cc(C3=CCCCC3)nn2)cc1 [BDCCA-37] | 465 | 565 | 1.7 | – | – | –
CCCCc1cn(-c2ccc3n2[B-](F)(F)[N+]2=C(N4CCCCC4)C=CC2=C3c2ccc(NC(=O)CCl)cc2)nn1 [BDCCA-42] | 467 | 577 | 1.3 | – | – | –
CC(C)Cc1cn(-c2ccc3n2[B-](F)(F)[N+]2=C(N4CCCCC4)C=CC2=C3c2ccc(NC(=O)CCl)cc2)nn1 [BDCCA-43] | 466 | 583 | 0.8 | – | – | –
CCCCCCCCc1cn(-c2ccc3n2[B-](F)(F)[N+]2=C(N4CCCCC4)C=CC2=C3c2ccc(NC(=O)CCl)cc2)nn1 [BDCCA-44] | 466 | 582 | 0.7 | – | – | –
Cc1cccc(-c2cn(-c3ccc4n3[B-](F)(F)[N+]3=C(N5CCCCC5)C=CC3=C4c3ccc(NC(=O)CCl)cc3)nn2)c1 [BDCCA-45] | 463 | 555 | 2.7 | – | – | –
CCc1ccc(-c2cn(-c3ccc4n3[B-](F)(F)[N+]3=C(N5CCCCC5)C=CC3=C4c3ccc(NC(=O)CCl)cc3)nn2)cc1 [BDCCA-46] | 464 | 568 | 1.2 | – | – | –
CCCCCCc1cn(-c2ccc3n2[B-](F)(F)[N+]2=C(N4CCCCC4)C=CC2=C3c2ccc(NC(=O)CCl)cc2)nn1 [BDCCA-47] | 466 | 560 | 1.8 | – | – | –
CCCc1cn(-c2ccc3n2[B-](F)(F)[N+]2=C(N4CCCCC4)C=CC2=C3c2ccc(NC(=O)CCl)cc2)nn1 [BDCCA-48] | 466 | 569 | 1.4 | – | – | –
CCCCCCCCCCc1cn(-c2ccc3n2[B-](F)(F)[N+]2=C(N4CCCCC4)C=CC2=C3c2ccc(NC(=O)CCl)cc2)nn1 [BDCCA-49] | 466 | 575 | 1.2 | – | – | –
CCCCCCCc1cn(-c2ccc3n2[B-](F)(F)[N+]2=C(N4CCCCC4)C=CC2=C3c2ccc(NC(=O)CCl)cc2)nn1 [BDCCA-50] | 466 | 568 | 1.0 | – | – | –
O=C(CCl)Nc1ccc(C2=C3C=CC(N4CCCCC4)=[N+]3[B-](F)(F)n3c2ccc3-n2cc(C3(O)CCCC3)nn2)cc1 [BDCCA-67] | 468 | 590 | 0.7 | – | – | –
O=C(CCl)Nc1ccc(C2=C3C=CC(N4CCCCC4)=[N+]3[B-](F)(F)n3c2ccc3-n2cc(CO)nn2)cc1 [BDCCA-70] | 465 | 584 | 0.6 | – | – | –

SMILES | λmax Absorp. ([1]; BDCCA library, Table 4) [nm] | λmax Emission ([1]; BDCCA library, Table 4) [nm] | φ (quantum yield) ([2]; BDCCA library, Table 4) [%] | λmax Absorp. ([1]; MK library, Table 5) [nm] | λmax Emission ([1]; MK library, Table 5) [nm] | φ (quantum yield) ([2]; MK library, Table 5) [%]
CCCC(C)c1cn(-c2ccc3n2[B-](F)(F)[N+]2=C(N4CC(C)OC(C)C4)C=CC2=C3c2ccc(N)cc2)nn1 (stereo not drawn) [MK20-3] | – | – | – | 476 | 573 | 0.10
CC1CN(C2=[N+]3C(=C(c4ccc(N)cc4)c4ccc(-n5cc(C6CC6)nn5)n4[B-]3(F)F)C=C2)CC(C)O1 (stereo not drawn) [MK20-4] | – | – | – | 476 | 564 | 0.50
CC1CN(C2=[N+]3C(=C(c4ccc(N)cc4)c4ccc(-n5cc(C6CCCC6)nn5)n4[B-]3(F)F)C=C2)CC(C)O1 (stereo not drawn) [MK20-5] | – | – | – | 476 | 580 | 0.57
CC1CN(C2=[N+]3C(=C(c4ccc(N)cc4)c4ccc(-n5cc(CC6CCCCC6)nn5)n4[B-]3(F)F)C=C2)CC(C)O1 (stereo not drawn) [MK20-8] | – | – | – | 476 | 563 | 0.32
CC1CN(C2=[N+]3C(=C(c4ccc(N)cc4)c4ccc(-n5cc(CN(C)Cc6ccccc6)nn5)n4[B-]3(F)F)C=C2)CC(C)O1 (stereo not drawn) [MK20-18] | – | – | – | 477 | 582 | 0.23
CC1CN(C2=[N+]3C(=C(c4ccc(N)cc4)c4ccc(-n5cc(CCc6ccccc6)nn5)n4[B-]3(F)F)C=C2)CC(C)O1 (stereo not drawn) [MK20-19] | – | – | – | 477 | 578 | 0.34
CC(C)Cc1cn(-c2ccc3n2[B-](F)(F)[N+]2=C(N4CC(C)OC(C)C4)C=CC2=C3c2ccc(N)cc2)nn1 (stereo not drawn) [MK20-43] | – | – | – | 478 | 584 | 0.23
CCCc1cn(-c2ccc3n2[B-](F)(F)[N+]2=C(N4CC(C)OC(C)C4)C=CC2=C3c2ccc(N)cc2)nn1 (stereo not drawn) [MK20-48] | – | – | – | 476 | 580 | 0.25
CCCCCC(O)c1cn(-c2ccc3n2[B-](F)(F)[N+]2=C(N4CC(C)OC(C)C4)C=CC2=C3c2ccc(N)cc2)nn1 (stereo not drawn) [MK20-69] | – | – | – | 480 | 586 | 0.16
CC1CN(C2=[N+]3C(=C(c4ccc(N)cc4)c4ccc(-n5cc(CO)nn5)n4[B-]3(F)F)C=C2)CC(C)O1 (stereo not drawn) [MK20-70] | – | – | – | 479 | 584 | 0.18
CCCC(C)c1cn(-c2ccc3n2[B-](F)(F)[N+]2=C(N4CCc5ccccc5C4)C=CC2=C3c2ccc(N)cc2)nn1 (stereo not drawn) [MK66-3] | – | – | – | 479 | 579 | 0.16
Nc1ccc(C2=C3C=CC(N4CCc5ccccc5C4)=[N+]3[B-](F)(F)n3c2ccc3-n2cc(C3CC3)nn2)cc1 [MK66-4] | – | – | – | 479 | 587 | 0.12
Nc1ccc(C2=C3C=CC(N4CCc5ccccc5C4)=[N+]3[B-](F)(F)n3c2ccc3-n2cc(C3CCCC3)nn2)cc1 [MK66-5] | – | – | – | 481 | 582 | 0.19
Nc1ccc(C2=C3C=CC(N4CCc5ccccc5C4)=[N+]3[B-](F)(F)n3c2ccc3-n2cc(CC3CCCCC3)nn2)cc1 [MK66-8] | – | – | – | 480 | 590 | 0.12
CN(Cc1ccccc1)Cc1cn(-c2ccc3n2[B-](F)(F)[N+]2=C(N4CCc5ccccc5C4)C=CC2=C3c2ccc(N)cc2)nn1 [MK66-18] | – | – | – | 478 | 587 | 0.14
Nc1ccc(C2=C3C=CC(N4CCc5ccccc5C4)=[N+]3[B-](F)(F)n3c2ccc3-n2cc(CCc3ccccc3)nn2)cc1 [MK66-19] | – | – | – | 480 | 585 | 0.13
CC(C)Cc1cn(-c2ccc3n2[B-](F)(F)[N+]2=C(N4CCc5ccccc5C4)C=CC2=C3c2ccc(N)cc2)nn1 [MK66-43] | – | – | – | 480 | 582 | 0.14
CCCc1cn(-c2ccc3n2[B-](F)(F)[N+]2=C(N4CCc5ccccc5C4)C=CC2=C3c2ccc(N)cc2)nn1 [MK66-48] | – | – | – | 480 | 581 | 0.12
CCCCCC(O)c1cn(-c2ccc3n2[B-](F)(F)[N+]2=C(N4CCc5ccccc5C4)C=CC2=C3c2ccc(N)cc2)nn1 (stereo not drawn) [MK66-69] | – | – | – | 480 | 583 | 0.14
Nc1ccc(C2=C3C=CC(N4CCc5ccccc5C4)=[N+]3[B-](F)(F)n3c2ccc3-n2cc(CO)nn2)cc1 [MK66-70] | – | – | – | 479 | 596 | 0.14
CCCC(C)c1cn(-c2ccc3n2[B-](F)(F)[N+]2=C(NCc4ccccc4C)C=CC2=C3c2ccc(N)cc2)nn1 (stereo not drawn) [MK101-3] | – | – | – | 475 | 562 | 1.08
